Measured values published in US20260274814A1, “THIENYL COMPOUNDS FOR THE TREATMENT OF A CENTRAL NERVOUS SYSTEM DISEASE OR DISORDER” (Coreterra Therapeutics, Inc., priority 2023, published 2026).
Counter-ions that a name gives are not always drawn. Like-named read-outs stand apart in the source and are kept apart here.

Test system: mice
Experiment: Neuropharmacological Assay (SmartCube): automated behavioral signature of compound-treated mice compared with a database of reference drug classes
Assay type: in vivo
Settings: for minimal effective dose: Mus musculus, ip, read-out: MED; for minimal effective dose / MED: minimal effective dose: dose having 45% or more total activity in SmartCube, i.p., that dose is shown
Summary of the method: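 Compounds in N-methyl-2-pyrrolidone/polyethylene glycol/propylene glycol were given i.p. 15 min before testing, at 3 doses; values shown are for 3.0 mg/kg. Video-captured behaviour was matched by algorithm against reference drug classes, giving a probability per class. MED: lowest dose reaching ≥45% total activity.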

[1] = SmartCube class probability, 3.0 mg/kg i.p., 15 min before test
[2] = SmartCube class probability, 3.0 mg/kg i.p., 15 min before test, 3 mg/kg
[3] = SmartCube probability class, 3.0 mg/kg dose, i.p. 15 min before the behavioral test

SMILES	minimal effective dose (if only one dose tested)	AD [1]	AG [1]	AN [1]	AP [1]	AX [1]	CE [1]	HL [1]	MS [1]	PS [1]	SH [1]	UK [1]	minimal effective dose (if only one dose was tested)	AD [3]	AG [3]	AN [3]	AP [3]	AX [3]	CE [3]	HL [3]	further results
Cc1csc2c1OCC(N)C2 (stereo not drawn) [Compound 228, 3-methyl-6,7-dihydro-5H-thieno[3,2-b]pyran-6-amine hydrochloride]	1 mg/kg	ND (^ <4%)	ND (^ <4%)	ND (^ <4%)	ND (^ <4%)	ND (^ <4%)	ND (^ <4%)	ND (^ <4%)	ND (^ <4%)	ND (^ <4%)	ND (^ <4%)	ND (^ <4%)	–	–	–	–	–	–	–	–	–
NC1COc2c(C3CC3)csc2C1 (stereo not drawn) [Compound 229, 3-cyclopropyl-6,7-dihydro-5H-thieno[3,2-b]pyran-6-amine hydrochloride]	3 mg/kg	–	ND (^ <4%)	ND (^ <4%)	ND (^ <4%)	++++ (≥74%)	ND (^ <4%)	+ (≥4%)	ND (^ <4%)	ND (^ <4%)	ND (^ <4%)	ND (^ <4%)	–	–	–	–	–	–	–	–	–
CNC1COc2sccc2C1 (stereo not drawn) [Compound 234, N-methyl-3,4-dihydro-2H-thieno[2,3-b]pyran-3-amine hydrochloride]	1 mg/kg	ND (^ <4%)	ND (^ <4%)	ND (^ <4%)	++++ (≥74%)	+ (≥4%)	ND (^ <4%)	ND (^ <4%)	ND (^ <4%)	ND (^ <4%)	ND (^ <4%)	ND (^ <4%)	–	–	–	–	–	–	–	–	–
CNC1COc2c(C3CC3)csc2C1 (stereo not drawn) [Compound 235, 3-cyclopropyl-N-methyl-6,7-dihydro-5H-thieno[3,2-b]pyran-6-amine hydrochloride]	3 mg/kg	++++ (≥74%)	ND (^ <4%)	ND (^ <4%)	ND (^ <4%)	ND (^ <4%)	ND (^ <4%)	ND (^ <4%)	ND (^ <4%)	ND (^ <4%)	ND (^ <4%)	ND (^ <4%)	–	–	–	–	–	–	–	–	–
CNC1(C)COc2c(C)csc2C1.Cl (stereo not drawn) [Compound 239, N, 3,6-trimethyl-6,7-dihydro-5H-thieno[3,2-b]pyran-6-amine hydroachloride]	–	–	ND (^ <4%)	ND (^ <4%)	ND (^ <4%)	ND (^ <4%)	ND (^ <4%)	ND (^ <4%)	ND (^ <4%)	ND (^ <4%)	ND (^ <4%)	–	–	–	–	–	–	–	–	–	AD [2]: ND (^ <4%); UK [2]: ++ (≥24%); MED (if only one dose tested): >3 mpk
CNC1(C)COc2c(C)csc2C1.Cl (stereo not drawn) [Compound 240, N, 3,6-trimethyl-6,7-dihydro-5H-thieno[3,2-b]pyran-6-amine hydroachloride]	–	–	ND (^ <4%)	ND (^ <4%)	ND (^ <4%)	ND (^ <4%)	ND (^ <4%)	ND (^ <4%)	ND (^ <4%)	ND (^ <4%)	ND (^ <4%)	–	–	–	–	–	–	–	–	–	AD [2]: + (≥4%); UK [2]: +++ (≥49%); MED (if only one dose tested): 3 mpk
CNC1COc2c(C)csc2C1 (stereo not drawn) [Compound 247, N, 3-dimethyl-6,7-dihydro-5H-thieno[3,2-b]pyran-6-amine hydrochloride]	3 mg/kg	ND (^ <4%)	ND (^ <4%)	ND (^ <4%)	++++ (≥74%)	ND (^ <4%)	ND (^ <4%)	ND (^ <4%)	ND (^ <4%)	ND (^ <4%)	ND (^ <4%)	ND (^ <4%)	–	–	–	–	–	–	–	–	–
CNC1COc2c(C(F)(F)F)csc2C1 (stereo not drawn) [Compound 248, N-methyl-3-(trifluoromethyl)-6,7-dihydro-5H-thieno[3,2-b]pyran-6-amine hydrochloride]	1 mg/kg	+++ (≥49%)	–	ND (^ <4%)	ND (^ <4%)	ND (^ <4%)	ND (^ <4%)	ND (^ <4%)	ND (^ <4%)	ND (^ <4%)	ND (^ <4%)	ND (^ <4%)	–	–	–	–	–	–	–	–	–
CNC1COc2c(csc2C(F)(F)F)C1 (stereo not drawn) [Compound 260, N-methyl-7-(trifluoromethyl)-3,4-dihydro-2H-thieno[3,4-b]pyran-3-amine hydrochloride]	3 mg/kg	+ (≥4%)	ND (^ <4%)	ND (^ <4%)	ND (^ <4%)	ND (^ <4%)	ND (^ <4%)	ND (^ <4%)	ND (^ <4%)	ND (^ <4%)	ND (^ <4%)	+++ (≥49%)	–	–	–	–	–	–	–	–	–
CNC1(C)COc2ccsc2C1 (stereo not drawn) [Compound 266, N, 6-dimethyl-5,7-dihydrothieno[3,2-b]pyran-6-amine formate salt]	> 3 mg/kg	ND (^ <4%)	ND (^ <4%)	ND (^ <4%)	ND (^ <4%)	ND (^ <4%)	ND (^ <4%)	–	ND (^ <4%)	ND (^ <4%)	ND (^ <4%)	+ (≥4%)	–	–	–	–	–	–	–	–	–
CNC1(C)COc2cc(C)sc2C1 (stereo not drawn) [Compound 285, N, 2,6-trimethyl-5,7-dihydrothieno[3,2-b]pyran-6-amine hydrochloride]	–	–	–	–	–	–	–	–	–	–	–	–	3 mg/kg	ND (^ <4%)	ND (^ <4%)	ND (^ <4%)	ND (^ <4%)	ND (^ <4%)	ND (^ <4%)	ND (^ <4%)	MS [3]: ND (^ <4%); PS [3]: ND (^ <4%); SH [3]: ND (^ <4%); UK [3]: +++ (≥49%)
CNC1COc2scc(C)c2C1 (stereo not drawn) [Compound 308, N, 5-dimethyl-3,4-dihydro-2H-thieno[2,3-b]pyran-3-amine hydrochloride]	–	–	–	–	–	–	–	–	–	–	–	–	< 3 mg/kg	ND (^ <4%)	ND (^ <4%)	ND (^ <4%)	++++ (≥74%)	ND (^ <4%)	ND (^ <4%)	ND (^ <4%)	MS [3]: ND (^ <4%); PS [3]: ND (^ <4%); SH [3]: ND (^ <4%); UK [3]: ND (^ <4%)
NC1Cc2ccsc2C1 (stereo not drawn) [Compound 311, 5,6-dihydro-4H-cyclopenta[b]thiophen-5-amine hydrochloride]	–	–	–	–	–	–	–	–	–	–	–	–	3 mg/kg	++ (≥24%)	ND (^ <4%)	ND (^ <4%)	ND (^ <4%)	ND (^ <4%)	ND (^ <4%)	ND (^ <4%)	MS [3]: ND (^ <4%); PS [3]: ND (^ <4%); SH [3]: ND (^ <4%); UK [3]: +++ (≥49%)
CNC1COc2scc(C#N)c2C1 (stereo not drawn) [Compound 322, 3-(methylamino)-3,4-dihydro-2H-thieno[2,3-b]pyran-5-carbonitrile hydrochloride]	–	–	–	–	–	–	–	–	–	–	–	–	3 mg/kg	ND (^ <4%)	ND (^ <4%)	ND (^ <4%)	+++ (≥49%)	ND (^ <4%)	ND (^ <4%)	ND (^ <4%)	MS [3]: ND (^ <4%); PS [3]: ND (^ <4%); SH [3]: ND (^ <4%); UK [3]: ++ (≥24%)
NC1CCCc2ccsc2C1 (stereo not drawn) [Compound 323, 5,6,7,8-tetrahydro-4H-cyclohepta[b]thiophen-7-amine hydrochloride]	–	–	–	–	–	–	–	–	–	–	–	–	3 mg/kg	++ (≥24%)	ND (^ <4%)	ND (^ <4%)	++ (≥24%)	+ (≥4%)	ND (^ <4%)	ND (^ <4%)	MS [3]: ND (^ <4%); PS [3]: ND (^ <4%); SH [3]: ND (^ <4%); UK [3]: + (≥4%)
CNC1CCCc2sccc2C1 (stereo not drawn) [Compound 326, N-methyl-5,6,7,8-tetrahydro-4H-cyclohepta[b]thiophen-5-amine hydrochloride]	–	–	–	–	–	–	–	–	–	–	–	–	3 mg/kg	ND (^ <4%)	ND (^ <4%)	ND (^ <4%)	ND (^ <4%)	++ (≥24%)	ND (^ <4%)	ND (^ <4%)	MS [3]: ND (^ <4%); PS [3]: ND (^ <4%); SH [3]: ND (^ <4%); UK [3]: ++ (≥24%)
CNC1CCc2ccsc2CC1 (stereo not drawn) [Compound 327, N-methyl-5,6,7,8-tetrahydro-4H-cyclohepta[b]thiophen-6-amine hydrochloride]	–	–	–	–	–	–	–	–	–	–	–	–	3 mg/kg	ND (^ <4%)	ND (^ <4%)	ND (^ <4%)	ND (^ <4%)	++ (≥24%)	ND (^ <4%)	ND (^ <4%)	MS [3]: ND (^ <4%); PS [3]: ND (^ <4%); SH [3]: ND (^ <4%); UK [3]: +++ (≥49%)
